Measurements: a melting point compilation (Tetko et al.; mined from patent text by program, amines drawn as free bases though some values may be those of a salt)

| melting point [°C] | SMILES |
| --- | --- |
| 111 to 113 | CN1C(=O)Cc2cccc(Cl)c21 |
| > 250 | Nc1cccc(C(=O)Nc2nccn(-c3ccccc3)c2=O)c1 |
| 159 to 161 | COc1ccc(N2CCN(c3c(C)c(C)c4c(c3C)C(c3cccnc3)C(C)(C)O4)CC2)cc1 (stereo not given) |
| 253 | Nc1ncnc2c1cnn2C1OC(CO)C(O)C1O (stereo not given) |
| 127 to 128 | CN(C)C(=S)SC(C[N+](=O)[O-])c1ccc(Cl)cc1Cl (stereo not given) |
| 108 to 110 | CCC(Oc1cccc(C)c1C)C1=NCCN1C=Nc1ccccn1 (stereo not given) |
| 267 | CN(C)C(=O)N1CC2(CCN(C(=O)Nc3nnc(-c4ccccc4)s3)CC2)c2ccccc21 |
| 196 to 197 | Nc1nc2ccccc2c2c1ncn2CCOCC#Cc1ccccc1 |
| 153 to 156 | O=C1OC(O)c2c1cccc2[N+](=O)[O-] (stereo not given) |
| 234 to 235 | CCCCC(CC)C(=O)Nc1ccc2ccn(Cc3ccc(C(=O)O)cc3OC)c2c1 (stereo not given) |
| 159 to 161 | O=[N+]([O-])c1cccc(-n2cnc3c([N+](=O)[O-])cccc32)c1 |
| 182 to 185 | CCc1nc2c(N)nc3ccccc3c2n1CCCCSc1ncccn1 |
| 177 to 178 | NC(=O)c1ccnc(-c2cccc3cc(Cc4cccc(C(F)(F)F)c4)sc23)c1 |
| 165 to 166 | COc1ccc(CCNC(=O)C(F)(F)F)cc1S(N)(=O)=O |
| 282 to 284 | Cn1c(=O)[nH]c2nc3ccc(OCCCC(=O)NC4CCCCC4)cc3cc21 |
| 53 to 55 | CCOC(=O)c1c(C(F)(F)F)nc(C(F)(F)F)c(C)c1OC(C)C |
| 138 to 140 | CC(c1ccsc1)N(O)C(N)=O (stereo not given) |
| 88 to 90 | COC1=CC(=O)C(O)=C(CCCCCCC/C=C\CCCCCCCC2=C(O)C(=O)C(C)=C(OC)C2=O)C1=O |
| 194 to 196 | CNC1CCN(c2nncc3cc(OC)c(OC)cc23)CC1 |

| melting point [°C] | SMILES |
| --- | --- |
| 256 to 257 | O=C1NCCN1c1ccc(S(=O)(=O)Nc2ccc(C3CCCCC3)cc2)cc1 |
| 55 to 57 | Cc1cc(C2=C(c3cc(C)sc3C)CCC=C2)c(C)s1 |
| 138 | CCCCOc1ccc(C(=O)Nc2ccc3cc(CN4CCCC4)cnc3c2C)c(F)c1 |
| 246 to 248 | O=C(NCc1ccc(Cl)cc1)c1cnc2ccc(OCCO)cc2c1O |
| 154 to 156 | Cc1nnc2ccc(-c3ccsc3)nn12 |
| 117 to 119 | CNC(=O)CCCc1cncc2ccc(OC)cc12 |
| 123 to 124 | COc1cc(CCCC2SC(=O)NC2=O)ccc1OCc1csc(-c2ccccc2)n1 (stereo not given) |
| 75 to 78 | CCOC(=O)NCC1CO1 (stereo not given) |
| 262 to 264 | CC1(C)Oc2c(ccc3oc(C(=O)O)cc(=O)c23)-c2cc(Cl)ccc21 |
| 112 to 114 | Cc1cnc2c(N)cccc2c1Cl |
| 126 to 127 | OC12CCCC1N=C(S)N2c1ccccn1 (stereo not given) |
| 148 to 149 | C[C@@H](O[Si](C)(C)C(C)(C)C)[C@@H]1C(=O)N[C@@H]1S(=O)(=O)c1ccc([N+](=O)[O-])cc1[N+](=O)[O-] |
| 60 | CCc1c(CC(O)N2CCN(c3cc(C)ccn3)CC2)c2cccc3c2n1CCC3 (stereo not given) |
| 164 to 166 | Clc1ccc(-c2nn(-c3ccc(Br)cc3)cc2CCc2nnn[nH]2)cc1 |
| 93 | COC(=O)CCC#Cc1cc(Cl)ccc1NS(=O)(=O)c1ccc(-c2ccccc2)cc1 |
| 174 to 175 | CC(C)(n1cncn1)C(O)(Cc1nc[nH]n1)c1ccc(C(F)(F)F)cc1F (stereo not given) |
| 58.5 to 60.1 | CCCCC1CCC(c2ccc(Cc3ccc(N)cc3)cc2)(c2ccc(Cc3ccc(N)cc3)cc2)CC1 |
| 177 | O=C(Nc1n[nH]c2cc(Cl)ccc12)c1ccccn1 |
| 211 to 213 | CCCn1ncnc1COc1nn2c(-c3ccccc3)nnc2cc1-c1ccccc1 |

| SMILES | melting point [°C] |
| --- | --- |
| Cc1ccc(N2CCN(CCCCl)CC2)cc1 | 34 to 36 |
| CN1C(=O)CC(=O)N(c2ccccc2)c2ccccc21 | 144 to 146 |
